Assay [1] deals with Kuramochi cells. Briefly: IncuCyte Kuramochi Assay (cell proliferation). The assay is classed as cell-based. The note with it: Kuramochi cells labeled with mApple-H2B, cell count, read-out: IncuCyte - Kuramochi RB-WT: IC50. How it is done: IncuCyte® assay was used to measure the effect of disclosed compounds on cell proliferation. Fluorescent microscopy images of cells were taken immediately after compound treatment and 72 hours later. Image analysis software was used to obtain cell counts as a function of compound concentration. Kuramochi cells labeled with mApple-H2B were seeded on 384-well assay-ready plates. Plates were placed in an IncuCyte® (Sartorius) and scanned at 0 and 72 hours. IncuCyte® software was used to count the number of fluorescent nuclei in each well. The fold change in cell count from 0 to 72 hours in wells treated with increasing compounds concentrations (10 pts, ½ log dilution, 20 μM top concentration) was normalized to DMSO control wells. The normalized cell counts were fit with dose response curves and a […] was calculated.

Assay [2] deals with T1, CDK2/Cyclin E1 (Homo sapiens, UniProt P24941).
T1 construct: purchased 14-475
The assay can be described thus: Caliper Assay (LabChip EZ Reader mobility shift assay), inhibition of CDK2/Cyclin E1 activity. It counts as biochemical. Conditions: 2.5 nM CDK2/Cyclin E1(14-475), 100 μM ATP, 30 min preincubation; read-out: Caliper Assay (CDK2/CCNE1): IC50. How it is done: Inhibition of CDK2/Cyclin E1 activity in the presence of compounds of the present disclosure was evaluated using a Caliper LabChip® EZ Reader mobility shift assay. In the assay, activated CDK2/Cyclin E1 catalyzes the phosphorylation of a fluorescently tagged peptide 5-FAM-QSPKKG-CONH2 (PerkinElmer, FL Peptide 18) which induces a difference in capillary electrophoresis mobility. The peptide substrate and product were measured, and the conversion ratio was used to determine the inhibition (as % activity and IC50 values) of CDK2/Cyclin E1. Reactions contained 50 mM HEPES pH 7.5, 10 mM MgCl2, 1 mM EDTA, 2 mM DTT, 0.01% Brij35, 0.5 mg/mL BSA, 0.1% DMSO, 2.5 nM CDK2/Cyclin E1(14-475), 100 μM ATP, and 1.5 μM fluorescent peptide substrate.
Dose titrations of inhibitors in 100% DMSO were combined with 3.25 nM CDK2/Cyclin E1(14-475) and 130 μM of ATP in reaction buffer. The mixtures were incubated for 30 minutes before the addition of fluorescent peptide substrate to initiate the kinase reaction. The final conditions were 2.5 nM CDK2/Cyclin E1(14-475), 100 μM ATP, and 1.5 μM fluorescent peptide. The reactions were stopped after 100 minutes with the addition of EDTA (6 mM final EDTA concentration). The stopped reactions were analyzed on a Caliper LabChip© EZ Reader II. The conversion ratios were normalized to yield % activity, plotted against compound concentration, and fit to a four-parameter equation to determine the IC50 for each compound.

Like-named read-outs stand apart in the source and are kept apart here.

For the compound `Cc1cc(C)n(C(C)c2nc(C3CN(C(=O)c4cnn(Cc5ccccc5)c4)CC34CN(C(=O)[C@H]3CC3(C)C)C4)no2)n1` (single isomer, unassigned) [I-2], the IC50 in assay [1] (72 h) was in the range of 5 to 10 µM.
Regarding `CC(c1nc(C2CN(C(=O)c3cncs3)CC23CN(C(=O)[C@H]2CC2(C)C)C3)no1)n1ccc(C2CCCC2)n1` (single isomer, unassigned) [I-36 1st], the IC50 is 0.01 to 0.1 µM in assay [2] and above 10 µM in assay [1] (72 h).
For the compound `CC(c1nc(C2CN(C(=O)c3cncs3)CC23CN(C(=O)[C@H]2CC2(C)C)C3)no1)n1ccc(C2CCCC2)n1` (single isomer, unassigned) [I-36 4th], the IC50 was 0.01 to 0.1 µM in assay [2] and above 10 µM in assay [1] (72 hours).
The corresponding values for `CC(c1nc(C2CN(C(=O)c3cncs3)CC23CN(C(=O)[C@H]2CC2(C)C)C3)no1)n1ccc(C2CCCC2)n1` (single isomer, unassigned) [I-36 5th] are at most 0.01 µM and above 10 µM.
As to `CC1(C)CC1C(=O)N1CC2(CN(C(=O)c3cncs3)CC2(F)c2nnc(C(F)(F)c3ccc(Cl)c(Cl)c3)o2)C1` (single isomer, unassigned) [I-38 1st], the IC50 in assay [2] and in assay [1] (72 h) was above 10 µM throughout.
Consider `CC1(C)C[C@@H]1C(=O)N1CC2(CN(C(=O)c3cncs3)CC2(F)c2nnc(C(F)(F)c3ccc(Cl)c(Cl)c3)o2)C1` (single isomer, unassigned) [I-38 2nd], for which the IC50 in assay [2] was 1 to 10 µM; in assay [1] (72 h) it was above 10 µM.
Regarding `CC1(C)C[C@@H]1C(=O)N1CC2(CN(C(=O)c3cncs3)CC2(F)c2nnc(C(F)(F)c3ccc(Cl)c(Cl)c3)o2)C1` (single isomer, unassigned) [I-38 3rd], the IC50 in assay [2] and in assay [1] (72 hours) was above 10 µM in each case.
For the compound `CC1(C)C[C@@H]1C(=O)N1CC2(CN(C(=O)c3cnccn3)CC2c2nnc(C(F)(F)c3ccc(Cl)c(Cl)c3)o2)C1` (single isomer, unassigned) [I-45 1st], the IC50 was 0.1 to 1 µM in assay [2] and above 10 µM in assay [1] (72 h).
For `O=C(c1onc2ccccc12)N1CC(c2nnc(C(F)(F)c3ccc(Cl)c(Cl)c3)o2)C2(C1)CN(C(=O)[C@H]1CC1(F)F)C2` (single isomer, unassigned) [I-151 1st], the IC50 in assay [2] and in assay [1] (72 h) was above 10 µM each time.
Turning to `O=C(c1onc2ccccc12)N1CC(c2nnc(C(F)(F)c3ccc(Cl)c(Cl)c3)o2)C2(C1)CN(C(=O)[C@H]1CC1(F)F)C2` (single isomer, unassigned) [I-151 2nd], the IC50 in assay [2] is 1 to 10 µM; in assay [1] (72 hours), above 10 µM.
On to `CC1(C)C[C@@H]1C(=O)N1CC2(CN(C(=O)c3cnn(Cc4ccccc4)c3)CC2c2noc(Cc3ccc(Cl)cc3)n2)C1` (stereo partly shown) [I-1], for which the IC50 was 0.1 to 1 µM in assay [2] and 5 to 10 µM in assay [1] (72 h).
As for `CCO[C@H]1C[C@@H](c2nc(C3CN(C(=O)c4cnn(Cc5ccccc5)c4)CC34CN(C(=O)[C@H]3CC3(C)C)C4)no2)C1` (stereo partly shown) [I-3], the figures for the IC50 in assay [2] and in assay [1] (72 h) were 1 to 10 µM and above 10 µM, respectively.
As for `CC1(C)C[C@@H]1C(=O)N1CC2(CN(C(=O)c3cnn(Cc4ccccc4)c3)CC2c2nnc(Cc3ccc(Cl)c(Cl)c3)o2)C1` (stereo partly shown) [I-4], the figures for the IC50 in assay [2] and in assay [1] (72 hours) were 1 to 10 µM and above 10 µM, respectively.
With `CC1(C)C[C@@H]1C(=O)N1CC2(CN(C(=O)c3cnn(Cc4ccccc4)c3)CC2c2nnc(Nc3ccc(Br)cc3)o2)C1` (stereo partly drawn) [I-5, (1-benzyl-1H-pyrazol-4-yl)(8-(5-((4-bromophenyl)amino)-1,3,4-oxadiazol-2-yl)-2-((S)-2,2-dimethylcyclopropane-1-carbonyl)-2,6-diazaspiro[3.4]octan-6-yl)methanone], the IC50 in assay [2] was 1 to 10 µM; in assay [1] (72 h) it was above 10 µM.
Turning to `CC1(C)C[C@@H]1C(=O)N1CC2(CN(C(=O)c3cnn(Cc4ccccc4)c3)CC2c2nnc(Cc3ccc(Cl)c(Cl)c3)[nH]2)C1` (stereo partly drawn) [I-6, (1-benzyl-1H-pyrazol-4-yl)(8-(5-(3,4-dichlorobenzyl)-4H-1,2,4-triazol-3-yl)-2-((S)-2,2-dimethylcyclopropane-1-carbonyl)-2,6-diazaspiro[3.4]octan-6-yl)methanone], the IC50 in assay [2] was in the range of 1 to 10 µM; in assay [1] (72 h) it was 5 to 10 µM.
Turning to `CC1(C)C[C@@H]1C(=O)N1CC2(CN(C(=O)c3cnn(Cc4ccccc4)c3)CC2c2cc(NC(=O)C3CC3)on2)C1` (stereo partly drawn) [I-7, N-(3-(6-(1-benzyl-1H-pyrazole-4-carbonyl)-2-((S)-2,2-dimethylcyclopropane-1-carbonyl)-2,6-diazaspiro[3.4]octan-8-yl)isoxazol-5-yl)cyclopropanecarboxamide], the IC50 in assay [2] lay in the range of 0.1 to 1 µM; in assay [1] (72 h), 5 to 10 µM.
Regarding `CC1(C)C[C@@H]1C(=O)N1CC2(CN(C(=O)c3cnn(Cc4ccccc4)c3)CC2c2ncc(Cc3ccc(Cl)cc3)o2)C1` (stereo partly drawn) [I-8, (1-benzyl-1H-pyrazol-4-yl)(8-(5-(4-chlorobenzyl)oxazol-2-yl)-2-((S)-2,2-dimethylcyclopropane-1-carbonyl)-2,6-diazaspiro[3.4]octan-6-yl)methanone], the IC50 in assay [2] lay within 0.1 to 1 µM; in assay [1] (72 h) it was 5 to 10 µM.
As to `Cc1cc(C)n(C(C)c2nc(C3CN(C(=O)c4cncs4)CC34CN(C(=O)[C@H]3CC3(C)C)C4)no2)n1` (stereo partly drawn) [I-9, (8-(5-(1-(3,5-dimethyl-1H-pyrazol-1-yl)ethyl)-1,2,4-oxadiazol-3-yl)-2-((S)-2,2-dimethylcyclopropane-1-carbonyl)-2,6-diazaspiro[3.4]octan-6-yl)(thiazol-5-yl)methanone], the IC50 in assay [2] was 1 to 10 µM; in assay [1] (72 h), above 10 µM.
Regarding `Cc1ccc(CNC(=O)c2coc(C3CN(C(=O)c4cnn(Cc5ccccc5)c4)CC34CN(C(=O)[C@H]3CC3(C)C)C4)n2)nn1` (stereo partly shown) [I-10], the IC50 in assay [2] and in assay [1] (72 h) was above 10 µM in each case.
As to `C[C@@H](NC(=O)c1coc(C2CN(C(=O)c3cnn(Cc4ccccc4)c3)CC23CN(C(=O)[C@H]2CC2(C)C)C3)n1)c1ccccc1` (stereo partly shown) [I-11], the IC50 is 1 to 10 µM in assay [2] and at most 0.5 µM in assay [1] (72 h).
The corresponding values for `CC1(C)C[C@@H]1C(=O)N1CC2(CN(C(=O)c3cnn(Cc4ccccc4)c3)CC2c2nnc(CC3CCOCC3)o2)C1` (stereo partly shown) [I-12] are 1 to 10 µM and above 10 µM.
The corresponding values for `Cc1cc(C)n(Cc2nnc(C3CN(C(=O)c4cnn(Cc5ccccc5)c4)CC34CN(C(=O)[C@H]3CC3(C)C)C4)o2)n1` (stereo partly shown) [I-13] are 1 to 10 µM and above 10 µM.
As for `CC1(C)C[C@@H]1C(=O)N1CC2(CN(C(=O)c3cnn(Cc4ccccc4)c3)CC2c2nnc(Cc3cncnc3)o2)C1` (stereo partly drawn) [I-14, (1-benzyl-1H-pyrazol-4-yl)(2-((S)-2,2-dimethylcyclopropane-1-carbonyl)-8-(5-(pyrimidin-5-ylmethyl)-1,3,4-oxadiazol-2-yl)-2,6-diazaspiro[3.4]octan-6-yl)methanone], the results for the IC50 in assay [2] and in assay [1] (72 h) were 1 to 10 µM and above 10 µM, respectively.
Turning to `CC1(C)C[C@@H]1C(=O)N1CC2(CN(C(=O)c3cnn(Cc4ccccc4)c3)C[C@@H]2c2nnc(Cc3ccc(Cl)c(Cl)c3)o2)C1` [I-16, (1-benzyl-1H-pyrazol-4-yl)((R)-8-(5-(3,4-dichlorobenzyl)-1,3,4-oxadiazol-2-yl)-2-((S)-2,2-dimethylcyclopropane-1-carbonyl)-2,6-diazaspiro[3.4]octan-6-yl)methanone], the results for the IC50 in assay [2] and in assay [1] (72 h) were 1 to 10 µM and above 10 µM, respectively.
The like results for `CC1(C)C[C@@H]1C(=O)N1CC2(CN(C(=O)c3cnn(Cc4ccccc4)c3)CC2c2nnc(CCC3CCC(F)(F)CC3)o2)C1` (stereo partly shown) [I-17] were, in that order, 0.1 to 1 µM and above 10 µM.
